Usually mortality stands for the percentage killed.

The experiment relates to tobacco budworm (Heliothis virescens). The experiment can be described thus: Tobacco budworm (Heliothis virescens) I: 96-well microtiter plates with insect diet and eggs, egg and larval mortality. The experiment is classed as in vivo. The settings on record: 120 h, read-out: mortality (egg and larval mortality, visually assessed). The protocol: B.1 Tobacco Budworm (Heliothis virescens) I
For evaluating control of tobacco budworm (Heliothis virescens) the test unit consisted of 96-well-microtiter plates containing an insect diet and 15-25 H. virescens eggs. The compounds were formulated using a solution containing 75% v/v water and 25% v/v DMSO. Different concentrations of formulated compounds were sprayed onto the insect diet at 10 μl, using a custom built micro atomizer, at two replications. After application, microtiter plates are incubated at about 28±1° C. and about 80±5% relative humidity for 5 days. Egg and larval mortality is then visually assessed.

For `Cc1cc(C2=NOC(c3cc(Cl)cc(Cl)c3)(C(F)(F)F)C2)ccc1C=NNC(=O)NCC(F)(F)F` (centres unmarked) [Compound 1-1, 4-[5-(3,5-dichloro-phenyl)-5-trifluoromethyl-4,5-dihydro-isoxazol-3-yl]-2-methyl-benzaldehyde-4-trifluoroethylsemicarbazone], the mortality at 2500 ppm was at least 75%.

Consider `CC(=NNC(=O)NCC(F)(F)F)c1ccc(C2=NOC(c3cc(Cl)cc(Cl)c3)(C(F)(F)F)C2)cc1C` (centres unmarked) [Compound 1-19, 1-{4-[5-(3,5-dichloro-phenyl)-5-trifluoromethyl-4,5-dihydro-isoxazol-3-yl]-2-methyl-phenyl}-ethanone-4-trifluoroethylsemicarbazone], for which the mortality at 2500 ppm was at least 75%.

The values are drawn from patent US9085541B2, “Process for producing imine compounds for combating invertebrate pests” (priority 2010, dated 2015).
